Tests used:
[1] = signs of systemic toxicity in the rabbit studies after topical ocular administration; format: in vivo; settings: topical ocular administration in the doses given
Source text: Like 2′,3′-dideoxycytidine (ddC; zalcitabine), the most important unresolved issue affecting the future commercial development of CPE-C is systemic safety. The untimely deaths reported in 1995 of two cancer patients treated with intravenous CPE-C [35] raises serious concerns for the treatment of a self-limited non-blinding ocular infection. […] Therefore, the challenge for a pharmaceutical company will be to generate convincing and reassuring systemic safety data following topical administration. Given the negative clinical history associated with this compound, a persuasive package of unambiguous data will be required to convince appropriate governmental regulatory agencies to grant approval for the proposed ocular indication for CPE-C as the first topical anti-adenoviral drug.

[2] = test system: NZW rabbit eyes; experiment: ocular toxicity in Draize rabbit model; format: in vivo, New Zealand white (NZW) rabbits; design: key to Maximum Mean Total Score: Draize/MMTS ocular toxicity score; for Draize irritation class: key: N = Non-Irritating; PN = Practically Non-Irritating
Protocol: CPE-C was evaluated for ocular toxicity using the standard Draize ocular scoring method which has been in use to determine the toxicity of cosmetics and chemicals since 1944 [39]. CPE-C ointments (3%, 2%, 1%, 0.5%) were administered topically 4 times daily for 4 days in uninfected, non-scarified NZW rabbit eyes (n = 2). Additionally, the 3% CPE-C concentration was also evaluated in rabbit eyes after corneal scarification. Overall, CPE-C, in concentrations up to 3% in an Aquaphor vehicle, appeared to be non-toxic to NZW rabbit eyes. […] There appeared to be no inhibition of corneal epithelial wound healing by the CPE-C in eyes that had undergone corneal epithelial scarification. Since the 3% CPE-C was the highest non-toxic concentration tested, this concentration was chosen for the in vivo antiviral efficacy testing in the Ad5/NZW rabbit ocular replication model.
CPE-C ointment (3%, 2%, 1%, 0.5%) was administered topically 4 times daily for 4 days in uninfected, non-scarified NZW rabbit eyes (n = 2). The CPE-C ointments were administered in approximately ½ inch strips per dose via a syringe with a 19-gauge cannula attached. The eyes were closed and gently rubbed to produce even distribution of antiviral over the entire ocular surface. The 3% CPE-C concentration was also evaluated in rabbit eyes after corneal scarification (general anesthesia with 40 mg/kg of ketamine and 4 mg/kg of xylazine administered intramuscularly and topical ocular anesthesia with proparacaine followed by 12 cross-hatched strokes with a #25 needle). All eyes were evaluated in a masked fashion for ocular toxicity using the Draize and MMTS scoring system on days 2, 3, and 4.

[3] = design: method as in PMID 7554044; settings: treatment of solid tumors; intravenous; cited from earlier work
[4] = 1% ointment 4 times daily, non-scarified eyes, Day 2
[5] = 1% ointment 4 times daily, non-scarified eyes, Day 3
[6] = 1% ointment 4 times daily, non-scarified eyes, Day 4
[7] = 2% ointment 4 times daily, non-scarified eyes, Day 2
[8] = 2% ointment 4 times daily, non-scarified eyes, Day 3
[9] = 2% ointment 4 times daily, non-scarified eyes, Day 4
[10] = 3% ointment 4 times daily, non-scarified eyes, Day 2

## Nc1ccn([C@@H]2C=C(CO)[C@@H](O)[C@H]2O)c(=O)n1 [CPE-C, Cyclopentenylcytosine]
[1]
  signs of systemic toxicity (decreased appetite, weight loss, wasting, death): no obvious signs of systemic toxicity
[2]; 0.5% ointment 4 times daily, non-scarified eyes, Day 2
  Maximum Mean Total Score: 1.0
[2]; 0.5% ointment 4 times daily, non-scarified eyes, Day 3
  Maximum Mean Total Score: 1.0
[2]; 0.5% ointment 4 times daily, non-scarified eyes, Day 4
  Maximum Mean Total Score: 1.0
[2]; [4]
  Draize irritation class: N
  Maximum Mean Total Score: 0.0
[2]; [5]
  Draize irritation class: N
  Maximum Mean Total Score: 0.0
[2]; [6]
  Draize irritation class: N
  Maximum Mean Total Score: 0.0
[2]; [7]
  Draize irritation class: N
  Maximum Mean Total Score: 0.0
[2]; [8]
  Draize irritation class: N
  Maximum Mean Total Score: 0.0
[2]; [9]
  Draize irritation class: N
  Maximum Mean Total Score: 0.0
[2]; 3% ointment 4 times daily, eyes with scarification, Day 2
  Maximum Mean Total Score: 1.0
[2]; 3% ointment 4 times daily, eyes with scarification, Day 3
  Maximum Mean Total Score: 1.0
[2]; 3% ointment 4 times daily, eyes with scarification, Day 4
  Maximum Mean Total Score: 1.0
[2]; [10]
  Draize irritation class: N
  Maximum Mean Total Score: 0.0
[2]; 3% ointment 4 times daily, non-scarified eyes, Day 3
  Maximum Mean Total Score: 2.0
[2]; 3% ointment 4 times daily, non-scarified eyes, Day 4
  Maximum Mean Total Score: 2.0
[2]; 3% ointment, scarified eyes, 4 times daily for 4 days
  ocular irritation by Draize scoring: practically non-irritating
[2]; eyes that had undergone corneal epithelial scarification
  inhibition of corneal epithelial wound healing: no inhibition
[2]; rabbit, in vivo
  ocular irritation by Draize scoring: non-irritating or practically non-irritating
[3]
  patient deaths during clinical trials: Two patient deaths from refractory hypotension

From article PMC10343472, “Cyclopentenylcytosine (CPE-C): In Vitro and In Vivo Evaluation as an Antiviral against Adenoviral Ocular Infections” (Molecules, 2023)
